From paper PMC10629583, “Specific inhibition of an anticancer target, polo-like kinase 1, by allosterically dismantling its mechanism of substrate recognition” (Proceedings of the National Academy of Sciences of the …, 2023)

Experiments:
Sigma 2 = Sigma 2 (Homo sapiens, UniProt Q5BJF2); test: PDSP off-target binding screen; conditions: for inhibition at 10 µM: read-out: Primary screen AVE(%inhib)±SD; for Ki: read-out: Secondary screen Ki
From the text: (§1) PDSP no. Compound Interactions (Ki, µM)
(§2) 60477 Allopole-A None observed.
(§3) trigger a secondary screen at that receptor.

5-HT1B = target: T1, 5-HT1B (Homo sapiens, UniProt P28222); test: PDSP off-target binding screen; conditions: for inhibition at 10 µM: read-out: Primary screen AVE(%inhib)±SD; for Ki: read-out: Secondary screen Ki
T1 construct: NIMH Psychoactive Drug Screening Program (UNC)
From the text: as §1, §2, §3

Alpha1B = target: T2, Alpha1B (Homo sapiens, UniProt P35368); test: PDSP off-target binding screen; conditions: for inhibition at 10 µM: read-out: Primary screen AVE(%inhib)±SD; for Ki: read-out: Secondary screen Ki
T2 sequence (P35368 1-520): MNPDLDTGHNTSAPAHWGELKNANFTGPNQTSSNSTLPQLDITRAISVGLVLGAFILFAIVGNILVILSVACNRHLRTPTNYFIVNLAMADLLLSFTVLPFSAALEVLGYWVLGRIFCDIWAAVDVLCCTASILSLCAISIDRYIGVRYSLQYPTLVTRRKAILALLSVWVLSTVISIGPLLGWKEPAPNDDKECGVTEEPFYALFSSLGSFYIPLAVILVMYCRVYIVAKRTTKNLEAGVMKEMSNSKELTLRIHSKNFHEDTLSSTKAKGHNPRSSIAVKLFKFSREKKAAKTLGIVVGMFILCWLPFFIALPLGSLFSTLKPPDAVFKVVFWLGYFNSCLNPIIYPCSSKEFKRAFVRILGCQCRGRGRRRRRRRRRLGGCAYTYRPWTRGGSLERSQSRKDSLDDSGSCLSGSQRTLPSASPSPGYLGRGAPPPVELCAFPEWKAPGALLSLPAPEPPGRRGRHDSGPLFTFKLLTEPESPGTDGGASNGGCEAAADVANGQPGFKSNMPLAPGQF
From the text: as §1, §2, §3

Beta2 = Beta2 (Homo sapiens, UniProt P07550); test: PDSP off-target binding screen; conditions: for inhibition at 10 µM: read-out: Primary screen AVE(%inhib)±SD; for Ki: read-out: Secondary screen Ki
From the text: as §1, §2, §3

DOR = DOR (Homo sapiens, UniProt P41143); test: PDSP off-target binding screen; conditions: for inhibition at 10 µM: read-out: Primary screen AVE(%inhib)±SD; for Ki: read-out: Secondary screen Ki
From the text: as §1, §2, §3

Beta1 = Beta1 (Homo sapiens, UniProt P08588); test: PDSP off-target binding screen; conditions: for inhibition at 10 µM: read-out: Primary screen AVE(%inhib)±SD; for Ki: read-out: Secondary screen Ki
From the text: as §1, §2, §3

PBD1 F559D mutant = target: T3, PBD1 F559D mutant (Homo sapiens, UniProt P53350, F559D); test: FP-based binding/inhibition assay, PBD1 F559D; conditions: PBD1 F559D at EC85
T3 construct: constructs expressing PBD1 (residues 345–603) WT (pKM7650), F559D (pKM7878); His; TEV site (N); made in house; host or cells: bacteria (E. coli)
Protocol: FP assays were carried out essentially as described previously ([35], [36]). FITC-conjugated ligands (15 nM) were mixed with PBDs at their EC85 concentrations. All the samples were analyzed approximately 30 min after reaction in a 384-well format using the SpectraMax Paradigm multimode microplate detection platform (Molecular Devices). Data were analyzed after carrying out at least three independent experiments using GraphPad Prism software version 8.
Fig. S4. Generation of F559 mutants for in vitro and cell-based assays in Fig. 4. (A) SDS-PAGE showing the proteins used for the FP assays in Fig. 4 A and B. CBB, a Coomassie Brilliant Blue– stained gel. (B) Summary of Kd and EC85 values for PBD1 WT and mutants. The Kd values for PBD1 WT and mutants were determined after extrapolating them from the binding curves as the concentration at which 50% of the FITC-Ahx-DPPLHSpTAI-NH2 are PBD1-bound. The EC85 values indicate the effective concentration of 85% of the maximal concentration calculated for each protein. The FP values were obtained 30 minutes after incubation. For the F559K and F559R mutants, we were not able to determine the EC85 values and therefore used 2 µM of these proteins for the assays in Fig. 4B. N.D., not determined. […]

[1] = Conversion of Allopole to Allopole-A in buffers ± GSH (LC-MS); assay type: physicochemical; conditions: room temperature, 1 h; for Compounds detected / Compounds detected, % of total / Compounds detected, pk area: 100 µM Allopole
Protocol: High-performance liquid chromatography (HPLC)/high-resolution mass spectrometry was used to determine the products derived from investigational drugs incubated under various conditions by measuring their exact masses. Thereafter, 20 μL aliquots of several drug preparations in either DMSO or aqueous reaction solutions were diluted 2:1 in ethanol, followed by centrifugation at 15,000 × g for 5 min. The supernatant was then injected on a Thermo Vanquish liquid chromatograph coupled to a Thermo Q Exactive Orbitrap mass spectrometer (Thermo Fisher Scientific). The conditions for the analysis are listed as follows.
The analytes were identified using the Dmass between the predicted and measured exact monoisotopic mass for the protonated molecular ions applied to the empirical formula algorithm in the Qual Browser application of the Xcalibur software (Themo Scientific). Selected ions from the base peak chromatogram were extracted for integration of peak areas. The relative amounts of each analyte to the sum total were calculated to estimate conversion of and prodrug under the specific conditions to breakdown products.
Table S2. Conversion of Allopole to Allopole-A under various buffer conditions, room
Buffers* Compounds detected
Allopole-A Allopole-A (-S) Allopole (-Cl) Allopole
* Buffer #1: 20 mM Tris (pH 8.0), 50 mM NaCl, 1 mM EDTA, 1% DMSO
Buffer #2: 1 x PBS (pH 7.4), 1 mM EDTA, 1% DMSO
Buffer #3: 20 mM HEPES (pH 7.0), 50 mM NaCl, 1 mM EDTA, 1% DMSO
Samples were prepared by incubating 100 µM of Allopole in the indicated buffer conditions in the
absence or presence of 5 mM GSH for 1 h at room temperature. Note that in the absence of GSH,

L363 cells = test: MTS cell viability assay, L363 cells; assay type: cell-based; conditions: 48 h treatment
5-HT2A = 5-HT2A (Homo sapiens, UniProt P28223); test: PDSP off-target binding screen; conditions: for inhibition at 10 µM: read-out: Primary screen AVE(%inhib)±SD
[2] = Buffer #1 (20 mM Tris pH 8.0), no GSH
[3] = Buffer #2 (1 x PBS pH 7.4), no GSH
[4] = Buffer #3 (20 mM HEPES pH 7.0), no GSH

Chain of DOR (P41143 whole entry): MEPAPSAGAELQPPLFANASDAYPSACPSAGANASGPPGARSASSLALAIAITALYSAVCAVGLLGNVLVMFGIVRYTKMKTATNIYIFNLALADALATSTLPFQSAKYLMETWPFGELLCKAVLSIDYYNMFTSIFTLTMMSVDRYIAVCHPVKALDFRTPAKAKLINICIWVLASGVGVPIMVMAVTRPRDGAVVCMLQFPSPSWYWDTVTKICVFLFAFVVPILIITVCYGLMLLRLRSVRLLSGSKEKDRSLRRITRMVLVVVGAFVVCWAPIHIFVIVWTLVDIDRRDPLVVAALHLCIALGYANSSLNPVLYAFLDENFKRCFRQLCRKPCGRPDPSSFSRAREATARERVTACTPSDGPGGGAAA
Chain of Beta1 (P08588 whole entry): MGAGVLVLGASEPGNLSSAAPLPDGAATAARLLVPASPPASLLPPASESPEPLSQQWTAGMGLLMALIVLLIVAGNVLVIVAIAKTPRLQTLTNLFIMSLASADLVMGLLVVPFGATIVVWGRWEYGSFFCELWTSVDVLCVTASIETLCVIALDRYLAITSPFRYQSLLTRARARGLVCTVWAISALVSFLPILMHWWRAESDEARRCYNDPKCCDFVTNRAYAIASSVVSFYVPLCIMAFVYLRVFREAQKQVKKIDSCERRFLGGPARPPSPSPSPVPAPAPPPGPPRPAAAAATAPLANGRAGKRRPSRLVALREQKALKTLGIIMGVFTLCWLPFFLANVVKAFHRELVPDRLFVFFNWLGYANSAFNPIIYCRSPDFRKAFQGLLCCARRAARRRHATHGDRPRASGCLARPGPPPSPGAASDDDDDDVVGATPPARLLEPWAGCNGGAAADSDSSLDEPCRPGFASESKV
Chain of 5-HT2A (P28223 whole entry): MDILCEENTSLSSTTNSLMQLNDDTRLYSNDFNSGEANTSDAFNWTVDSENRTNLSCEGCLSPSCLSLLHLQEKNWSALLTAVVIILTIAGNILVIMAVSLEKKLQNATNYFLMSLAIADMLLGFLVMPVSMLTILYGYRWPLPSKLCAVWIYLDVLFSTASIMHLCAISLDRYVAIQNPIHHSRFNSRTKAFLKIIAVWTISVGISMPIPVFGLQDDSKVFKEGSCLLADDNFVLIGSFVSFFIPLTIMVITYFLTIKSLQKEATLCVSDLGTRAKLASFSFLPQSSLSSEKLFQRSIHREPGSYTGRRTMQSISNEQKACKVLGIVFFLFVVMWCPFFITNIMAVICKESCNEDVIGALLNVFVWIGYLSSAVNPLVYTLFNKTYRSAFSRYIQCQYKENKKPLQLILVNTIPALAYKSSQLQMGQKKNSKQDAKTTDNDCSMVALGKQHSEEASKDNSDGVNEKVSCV
Chain of Beta2 (P07550 whole entry): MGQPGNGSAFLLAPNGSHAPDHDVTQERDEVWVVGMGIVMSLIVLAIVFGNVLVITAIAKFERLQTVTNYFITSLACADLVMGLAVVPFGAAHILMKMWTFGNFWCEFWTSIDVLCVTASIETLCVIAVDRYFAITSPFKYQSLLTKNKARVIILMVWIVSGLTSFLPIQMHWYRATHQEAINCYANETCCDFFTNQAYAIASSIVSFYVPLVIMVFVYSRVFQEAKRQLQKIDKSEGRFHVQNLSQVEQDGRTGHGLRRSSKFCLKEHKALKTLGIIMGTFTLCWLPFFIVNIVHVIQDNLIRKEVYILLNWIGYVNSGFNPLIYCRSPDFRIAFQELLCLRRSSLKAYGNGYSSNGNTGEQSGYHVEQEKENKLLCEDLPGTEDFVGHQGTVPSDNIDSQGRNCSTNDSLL
Chain of Sigma 2 (Q5BJF2 whole entry): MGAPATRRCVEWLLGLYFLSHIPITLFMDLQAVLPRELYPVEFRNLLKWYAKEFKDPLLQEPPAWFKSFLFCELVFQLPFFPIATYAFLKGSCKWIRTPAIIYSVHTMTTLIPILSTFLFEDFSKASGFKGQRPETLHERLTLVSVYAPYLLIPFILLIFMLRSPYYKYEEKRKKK
T1 sequence (P28222 whole entry): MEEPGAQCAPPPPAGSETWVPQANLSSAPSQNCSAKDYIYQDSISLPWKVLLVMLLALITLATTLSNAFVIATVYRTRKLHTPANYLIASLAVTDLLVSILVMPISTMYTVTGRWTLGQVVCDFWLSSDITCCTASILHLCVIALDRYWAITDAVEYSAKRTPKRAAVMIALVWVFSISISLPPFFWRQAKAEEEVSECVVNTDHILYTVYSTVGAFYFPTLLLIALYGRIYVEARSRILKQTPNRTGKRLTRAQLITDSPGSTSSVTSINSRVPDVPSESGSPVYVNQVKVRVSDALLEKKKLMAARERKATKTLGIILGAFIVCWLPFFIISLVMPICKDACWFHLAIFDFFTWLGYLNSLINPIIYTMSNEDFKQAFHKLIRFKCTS
T3 sequence (P53350 345-603 F559D): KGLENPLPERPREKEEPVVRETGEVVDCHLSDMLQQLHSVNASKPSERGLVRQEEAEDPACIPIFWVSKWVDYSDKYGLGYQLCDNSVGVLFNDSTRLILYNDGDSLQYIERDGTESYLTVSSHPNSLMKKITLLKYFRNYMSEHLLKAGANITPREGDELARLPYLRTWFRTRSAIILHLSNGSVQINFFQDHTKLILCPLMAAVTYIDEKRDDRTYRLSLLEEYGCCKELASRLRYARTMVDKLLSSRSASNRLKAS

Row | Structure (SMILES) | inhibition at 10 µM (Sigma 2) [%] | Ki (Sigma 2) [µM] | inhibition at 10 µM (5-HT1B) [%] | Ki (5-HT1B) [µM] | inhibition at 10 µM (Alpha1B) [%] | Ki (Alpha1B) [µM] | inhibition at 10 µM (Beta2) [%] | Ki (Beta2) [µM] | inhibition at 10 µM (DOR) [%] | Ki (DOR) [µM] | inhibition at 10 µM (Beta1) [%] | Ki (Beta1) [µM] | Compounds detected [1, 2] [µmol/L] | Compounds detected, % of total [1, 2] [%] | Compounds detected, pk area [1, 2] | Compounds detected ([1]; Buffer #1 + 5 mM GSH) [µmol/L] | Compounds detected, % of total ([1]; Buffer #1 + 5 mM GSH) [%] | Compounds detected, pk area ([1]; Buffer #1 + 5 mM GSH) | Compounds detected [1, 3] [µmol/L] | Compounds detected, % of total [1, 3] [%] | other results
1 | O=c1c2sc(Cl)cc2n2c(=S)[nH]nc2n1CC1CC1 [Allopole-A] | 40.6 ± 9.5 | > 10 | 17.7 ± 42.2 | > 10 | -7.7 ± 9.7 | > 10 | -2.1 ± 19.7 | > 10 | -13.5 ± 6.8 | > 10 | -6.2 ± 19.4 | > 10 | 1.3 | 1.3 | 9.61E+06 | 95.4 | 95.4 | 1.38E+09 | 0.8 | 0.8 | Inhibition of FITC-phosphopeptide binding (in words) (PBD1 F559D mutant): failed to inhibit; Compounds detected, pk area [1, 3]: 4.90E+06; Compounds detected ([1]; Buffer #2 + 5 mM GSH): 77.9 µmol/L; Compounds detected, % of total ([1]; Buffer #2 + 5 mM GSH): 77.9%; Compounds detected, pk area ([1]; Buffer #2 + 5 mM GSH): 5.81E+08; Compounds detected [1, 4]: 1.9 µmol/L; Compounds detected, % of total [1, 4]: 1.9%; Compounds detected, pk area [1, 4]: 1.56E+06; Compounds detected ([1]; Buffer #3 + 5 mM GSH): 66.9 µmol/L; Compounds detected, % of total ([1]; Buffer #3 + 5 mM GSH): 66.9%; Compounds detected, pk area ([1]; Buffer #3 + 5 mM GSH): 1.89E+08; Cell efficacy (GI50) Mean ± SD (L363 cells): failed to induce any significant antiproliferation effect; Cell efficacy (GI50) Mean ± SD (L363 cells; listed as 19): N. S.; Ki (5-HT2A): > 10 µM; inhibition at 10 µM (5-HT2A): 37 ± 10.4%
2 | Cn1cnc([N+](=O)[O-])c1Sc1nnc2n(CC3CC3)c(=O)c3sc(Cl)cc3n12 [Allopole] | 40.7 ± 5.8 | > 10 | 60.8 ± 40.9 | > 10 | -1.6 ± 9.5 | > 10 | 0.1 ± 10.6 | > 10 | -1 ± 4.8 | > 10 | 67.3 ± 49.1 | > 10 | 97.9 | 97.9 | 7.45E+08 | 0.1 | 0.1 | 8.76E+05 | 97.6 | 97.6 | Compounds detected, pk area [1, 3]: 6.28E+08; Compounds detected ([1]; Buffer #2 + 5 mM GSH): 0.0 µmol/L; Compounds detected, % of total ([1]; Buffer #2 + 5 mM GSH): 0.0%; Compounds detected, pk area ([1]; Buffer #2 + 5 mM GSH): 2.41E+03; Compounds detected [1, 4]: 93.1 µmol/L; Compounds detected, % of total [1, 4]: 93.1%; Compounds detected, pk area [1, 4]: 7.80E+07; Compounds detected ([1]; Buffer #3 + 5 mM GSH): 0.0 µmol/L; Compounds detected, % of total ([1]; Buffer #3 + 5 mM GSH): 0.0%; Compounds detected, pk area ([1]; Buffer #3 + 5 mM GSH): 9.35E+04; Unmasking of the prodrug by GSH (in words) ([1]; 5 mM GSH): completely unmask; Stability in buffer (in words) ([1]; absence of GSH): remains stable; GI50 (L363 cells; Homo sapiens, L-363, 48 h, read-out: Cell efficacy (GI50) Mean ± SD): 4.1 µM; Ki (5-HT2A): 9.2 µM; inhibition at 10 µM (5-HT2A): 52.4 ± 11.8%
